The source of these data is ChEMBL document CHEMBL5500383, “Recent advances and future directions on small molecule VEGFR inhibitors in oncological conditions” (Eur J Med Chem, 2024).

Data set [1] deals with HepG2. Nature of the data set: Antiproliferative activity against human HepG2 cells assessed as cell growth inhibition incubated for 24 hrs by MTT assay. Type of data set: functional, cell-based. Particulars: HepG2, 24 h.
Data set [2] deals with PC-3. Nature of the data set: Antiproliferative activity against human PC-3 cells assessed as cell growth inhibition incubated for 24 hrs by MTT assay. Particulars: PC-3, 24 h. The class given is functional, cell-based.
The nature of data set [3]: (§1) Antiproliferative activity against human WI-38 cells assessed as cell growth inhibition incubated for 24 hrs by MTT assay. Type of data set: toxicity, cell-based. Particulars: human, WI-38 cells. In general terms: Tetrazolium dyes change colour on reduction, which living cells bring about.
The test system of data set [4] is PC-3. The experiment in a line: Cytotoxicity against human PC-3 cells assessed as reduction in cell viability incubated for 72 hrs by MTT assay. The class given is functional, cell-based. Particulars: PC-3, 72 h.
The test system of another data set is DU-145. The experiment in a line: Cytotoxicity against human DU-145 cells assessed as reduction in cell viability incubated for 72 hrs by MTT assay. Type of data set: functional, cell-based. Particulars: DU-145, 72 h.
For a further data set, the system named is MDA-MB-435. The experiment in a line: Cytotoxicity against human MDA-MB-435 cells assessed as reduction in cell growth measured for 72 hrs by MTT assay. The class given is functional, cell-based. Particulars: MDA-MB-435, 72 h.
Data set [5] has as its target T1, Vascular endothelial growth factor receptor 2 (Homo sapiens, UniProt P35968). Nature of the data set: Inhibition of VEGFR2 (unknown origin).
Data set [6] relates to HepG2. The experiment in a line: Antiproliferative activity against human HepG2 cells assessed as reduction in cell growth. The class given is functional, cell-based.
Another data set relates to Caco-2. Nature of the data set: Antiproliferative activity against human Caco-2 cells assessed as reduction in cell growth. Type of data set: functional, cell-based.
For data set [7], the system named is MCF7. The experiment in a line: Antiproliferative activity against human MCF7 cells assessed as inhibition of cell growth. The class given is functional, cell-based.
For data set [8], the system named is PC-3. The experiment in a line: Antiproliferative activity against human PC-3 cells assessed as inhibition of cell growth. The class given is functional, cell-based.
In data set [9] the target is Serine/threonine-protein kinase pim-1 (Homo sapiens, UniProt P11309). Nature of the data set: Inhibition of PIM-1 (unknown origin).
The subject of data set [10] is MCF7. Nature of the data set: Cytotoxicity against human MCF7 cells assessed as reduction in cell viability. Type of data set: functional, cell-based.
The target in data set [11] is T1, Vascular endothelial growth factor receptor 2. Nature of the data set: Inhibition of VEGFR2 (unknown origin) incubated for 1 hr in presence of ATP by ELISA method.
In the next data set the test system is SF-539. Nature of the data set: Antiproliferative activity against human SF-539 cells assessed as inhibition of cell growth at 10 uM after 48 hrs by sulforhodamine B assay relative to control. On the set-up: scale not given: the % may be the effect or the level left. Type of data set: functional. Background: Sulforhodamine B stains cellular protein and so reports cell mass.

Data set [12] addresses T1, Vascular endothelial growth factor receptor 2. Nature of the data set: Inhibition of GST-tagged human recombinant VEGFR2.
The next data set concerns WI-38. Described as §1. Type of data set: toxicity, cell-based. Particulars: wi-38.
Data set [13] has as its target RAC-alpha serine/threonine-protein kinase (Homo sapiens, UniProt P31749). Nature of the data set: Inhibition of AKT1 (unknown origin).
For a further data set, the system named is EA.hy 926. The experiment in a line: Antiproliferative activity against human EA.hy 926 cells assessed as reduction in cell viability incubated for 48 hrs by MTT assay. The class given is functional, cell-based. Particulars: EA.hy 926, 48 h.
For the next data set, the system named is U-87 MG. The experiment in a line: Antiproliferative activity against human U87 cells assessed as inhibition of cell viability incubated for 72 hrs by MTT assay. Type of data set: functional, cell-based, U-87MG ATCC.
A further data set relates to HOP-92. Nature of the data set: Growth inhibition of human HOP-92 cells incubated for 48 hrs by sulforhodamine B assay. The class given is functional.
The target of data set [14] is Hepatocyte growth factor receptor (Homo sapiens, UniProt P08581). Nature of the data set: Inhibition of c-Met (unknown origin).
A further data set concerns MHCC97H. Nature of the data set: Antiproliferative activity against human MHCC97H cells assessed as reduction in cell viability incubated for 48 hrs by CCK-8 assay. The class given is functional, cell-based.
The nature of data set [15]: Cytotoxicity against human HUVEC cells assessed as reduction in cell viability by CCK-8 assay. The class given is toxicity, cell-based.

Structures are written as SMILES.

T1 sequence (P35968 whole entry): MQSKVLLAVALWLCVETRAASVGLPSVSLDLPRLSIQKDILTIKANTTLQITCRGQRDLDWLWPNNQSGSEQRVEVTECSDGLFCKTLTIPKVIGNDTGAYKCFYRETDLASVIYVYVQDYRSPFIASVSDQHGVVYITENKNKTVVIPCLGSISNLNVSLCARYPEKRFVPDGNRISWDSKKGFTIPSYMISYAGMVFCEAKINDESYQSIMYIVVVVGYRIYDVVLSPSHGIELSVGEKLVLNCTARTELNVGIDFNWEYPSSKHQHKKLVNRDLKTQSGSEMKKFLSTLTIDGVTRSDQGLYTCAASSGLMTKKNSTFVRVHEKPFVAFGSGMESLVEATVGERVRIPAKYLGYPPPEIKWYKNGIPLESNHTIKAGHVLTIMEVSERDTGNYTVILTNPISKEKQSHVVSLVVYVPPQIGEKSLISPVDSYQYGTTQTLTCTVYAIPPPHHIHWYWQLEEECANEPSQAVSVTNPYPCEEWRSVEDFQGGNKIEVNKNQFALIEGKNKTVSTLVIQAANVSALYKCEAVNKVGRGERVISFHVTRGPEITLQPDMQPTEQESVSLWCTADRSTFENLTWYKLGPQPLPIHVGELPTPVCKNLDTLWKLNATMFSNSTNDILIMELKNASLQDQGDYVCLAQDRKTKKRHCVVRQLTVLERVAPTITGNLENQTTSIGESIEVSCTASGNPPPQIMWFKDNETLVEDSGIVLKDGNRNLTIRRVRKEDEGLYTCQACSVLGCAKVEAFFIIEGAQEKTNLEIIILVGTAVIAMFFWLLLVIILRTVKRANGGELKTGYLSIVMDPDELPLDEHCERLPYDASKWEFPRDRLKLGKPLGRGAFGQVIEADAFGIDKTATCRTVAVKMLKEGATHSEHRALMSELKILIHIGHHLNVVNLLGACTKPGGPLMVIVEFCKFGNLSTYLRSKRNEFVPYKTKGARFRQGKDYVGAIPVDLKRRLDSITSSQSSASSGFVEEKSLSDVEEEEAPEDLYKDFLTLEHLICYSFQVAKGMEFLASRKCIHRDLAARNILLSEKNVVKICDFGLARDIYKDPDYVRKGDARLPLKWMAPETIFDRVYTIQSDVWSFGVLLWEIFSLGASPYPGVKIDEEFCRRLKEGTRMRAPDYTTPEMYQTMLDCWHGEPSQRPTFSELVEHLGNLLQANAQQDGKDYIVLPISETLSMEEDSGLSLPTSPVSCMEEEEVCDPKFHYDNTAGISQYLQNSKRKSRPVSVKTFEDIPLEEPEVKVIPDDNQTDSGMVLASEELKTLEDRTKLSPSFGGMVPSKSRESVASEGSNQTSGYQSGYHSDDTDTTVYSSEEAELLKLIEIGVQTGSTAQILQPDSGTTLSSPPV
Serine/threonine-protein kinase pim-1, sequence (P11309 whole entry): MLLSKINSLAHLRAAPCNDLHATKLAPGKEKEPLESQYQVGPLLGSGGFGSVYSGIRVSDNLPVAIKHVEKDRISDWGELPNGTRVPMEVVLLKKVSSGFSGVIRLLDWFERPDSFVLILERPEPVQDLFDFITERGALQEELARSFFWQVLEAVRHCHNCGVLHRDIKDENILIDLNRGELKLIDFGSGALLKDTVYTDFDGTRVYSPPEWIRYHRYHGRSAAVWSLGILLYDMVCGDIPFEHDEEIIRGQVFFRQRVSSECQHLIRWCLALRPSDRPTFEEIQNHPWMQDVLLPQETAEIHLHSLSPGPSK
RAC-alpha serine/threonine-protein kinase, sequence (P31749 whole entry): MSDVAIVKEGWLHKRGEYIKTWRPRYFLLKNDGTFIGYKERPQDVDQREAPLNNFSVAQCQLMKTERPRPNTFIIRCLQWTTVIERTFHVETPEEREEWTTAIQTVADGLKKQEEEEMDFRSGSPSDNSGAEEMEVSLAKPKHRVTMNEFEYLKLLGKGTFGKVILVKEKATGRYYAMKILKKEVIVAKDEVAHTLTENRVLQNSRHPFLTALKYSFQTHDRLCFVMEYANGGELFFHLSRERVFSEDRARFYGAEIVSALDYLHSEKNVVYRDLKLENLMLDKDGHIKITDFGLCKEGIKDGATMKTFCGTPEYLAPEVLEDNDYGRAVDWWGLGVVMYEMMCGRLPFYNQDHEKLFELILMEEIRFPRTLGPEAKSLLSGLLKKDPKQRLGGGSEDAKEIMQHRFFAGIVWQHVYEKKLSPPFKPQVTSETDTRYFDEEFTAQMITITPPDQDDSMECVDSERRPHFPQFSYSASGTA
Hepatocyte growth factor receptor, sequence (P08581 whole entry): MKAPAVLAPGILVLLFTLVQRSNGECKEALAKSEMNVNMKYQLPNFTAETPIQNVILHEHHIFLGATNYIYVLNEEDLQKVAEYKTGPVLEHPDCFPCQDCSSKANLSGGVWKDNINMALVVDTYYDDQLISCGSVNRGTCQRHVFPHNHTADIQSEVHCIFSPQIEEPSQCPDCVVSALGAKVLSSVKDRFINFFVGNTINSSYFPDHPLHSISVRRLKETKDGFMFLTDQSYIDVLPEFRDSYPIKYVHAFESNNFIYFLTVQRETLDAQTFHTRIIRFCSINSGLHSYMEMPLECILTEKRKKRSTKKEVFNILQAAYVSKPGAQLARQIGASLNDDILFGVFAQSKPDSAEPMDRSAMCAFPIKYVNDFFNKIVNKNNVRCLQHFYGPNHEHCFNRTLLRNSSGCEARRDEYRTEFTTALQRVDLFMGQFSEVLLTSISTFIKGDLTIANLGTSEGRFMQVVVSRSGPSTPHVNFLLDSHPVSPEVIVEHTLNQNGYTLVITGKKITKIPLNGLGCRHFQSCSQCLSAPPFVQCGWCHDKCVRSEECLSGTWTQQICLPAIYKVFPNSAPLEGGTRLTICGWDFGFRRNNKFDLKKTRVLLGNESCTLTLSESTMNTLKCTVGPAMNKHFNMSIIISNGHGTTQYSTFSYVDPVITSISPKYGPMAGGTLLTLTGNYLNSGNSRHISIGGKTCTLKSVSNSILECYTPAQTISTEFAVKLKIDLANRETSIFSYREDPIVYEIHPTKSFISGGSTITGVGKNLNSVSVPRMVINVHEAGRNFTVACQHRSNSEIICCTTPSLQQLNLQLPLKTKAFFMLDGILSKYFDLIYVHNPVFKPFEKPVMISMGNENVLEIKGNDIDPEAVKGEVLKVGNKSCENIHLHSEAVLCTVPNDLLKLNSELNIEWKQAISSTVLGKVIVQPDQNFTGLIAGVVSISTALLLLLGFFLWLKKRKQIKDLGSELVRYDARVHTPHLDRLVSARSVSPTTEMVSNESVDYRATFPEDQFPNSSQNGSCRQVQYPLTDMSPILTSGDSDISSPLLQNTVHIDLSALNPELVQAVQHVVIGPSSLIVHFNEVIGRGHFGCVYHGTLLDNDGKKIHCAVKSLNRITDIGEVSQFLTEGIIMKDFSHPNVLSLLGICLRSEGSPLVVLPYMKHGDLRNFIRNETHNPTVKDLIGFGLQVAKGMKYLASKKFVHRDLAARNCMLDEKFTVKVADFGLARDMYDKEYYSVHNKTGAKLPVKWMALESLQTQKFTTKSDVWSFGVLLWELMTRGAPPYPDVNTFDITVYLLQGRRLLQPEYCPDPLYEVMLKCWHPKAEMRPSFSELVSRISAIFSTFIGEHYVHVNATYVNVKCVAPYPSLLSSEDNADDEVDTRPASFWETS

What is called IC50 is the concentration needed to halve the response being measured. Take `CCOC(=O)c1c(NC(=S)Nc2cc(C)ccc2Cl)sc2c1N(C)CC2`: the half-maximal inhibitory concentration (IC50) amounted to 3.02 µM with HepG2 [1] and 3120 nM with PC-3 [2]. Besides, in data set [3], the IC50 at 24 h amounted to 35.3 µM.
On to `COc1cc(-c2cc(-c3ccc4ccccc4c3)nc(NN)c2C#N)ccc1O`, for which the results for the IC50 with PC-3 [4], in the data set with DU-145 and in the data set with MDA-MB-435 were 55 nM, 8.5 nM and 96 nM, respectively.
On to `COc1ccc(-c2cc(-c3ccc(OC)c(OC)c3)c3c(N)c(C(=O)c4ccc(C)cc4)sc3n2)cc1OC`, for which the IC50 in [5] turned out to be 5870 nM; with HepG2 [1] it was 0.006 µM; in the data set on PC-3 [2], 19 nM; in the data set on HepG2 [6] it was 6 nM; with Caco-2, 20 nM; in the data set with MCF7 [7], 10 nM. Also, the IC50 amounted to 10 nM in the data set on PC-3 [8] and 7.95 µM in data set [9].
With `Cc1ccc2oc(CCCC(=O)Nc3ccc(S(=O)(=O)NC(=O)NC4CCCCC4)cc3)nc2c1`, the IC50 in data set [5] was determined as 70 nM; in the data set with MCF7 [10], 5.5 µM.
With `CNC(=O)c1nc(Nc2ccc(NC(=O)Nc3cccc(OC)c3)cc2)c2ccccc2n1`, the IC50 in data set [11] was 40.3 µM. For the same molecule, the Activity in the data set on SF-539 was determined as 47.8%.
For `CN1CCC2=C1C1C(=O)NC(c3ccccc3)=NC1S2` (stereo unspecified), the IC50 is 126 nM in data set [12]; 3.11 µM in the data set with HepG2 [1]; 2150 nM with PC-3 [2]; 12.5 µM with WI-38; 6.96 µM in data set [13].
In the case of `O=C(Nc1ccc(Oc2ccnc(C(=O)NCCCCNC(=O)C3CC4C=CC3C4)c2)cc1)Nc1ccc(Cl)c(C(F)(F)F)c1` (stereo unspecified), the IC50 in data set [5] worked out at 230 nM; in the data set with EA.hy 926, 47 nM; in the data set on U-87 MG, 63.6 µM.
By GI50 is commonly meant the concentration that inhibits growth by half. For the molecule `Cc1ccc(S(=O)(=O)Nc2ccc(-c3cc(-c4cccc(F)c4)c(C#N)c(N)n3)cc2)cc1`, in the data set on HOP-92, halving of growth (GI50) required 1060 nM.
In the case of `COCCOc1cc2ncnc(Nc3ccc(NC(=O)CC(=O)Nc4ccc(F)cc4)cc3F)c2c2c1OCCO2`, the IC50 in [5] is 4.8 nM; in data set [14] it was 5.8 nM; in the data set with MHCC97H, 15.7 nM; in data set [15], 0.8 nM.
